Results: patent publication US20220289698A1, “INHIBITORS OF HUMAN ATGL” (Karl-Franzens-Universität Graz, priority 2019, published 2022)
Read-outs that look alike come from different tables or passages of the source.

Legend:
human ATGL = target: T1, human ATGL (Homo sapiens, UniProt Q96AD5); experiment: TG hydrolase activity, Expi cell lysates expressing human ATGL + CGI-58, radiolabelled triolein; assay type: biochemical
T1 construct: made in house; host or cells: Expi cells (lysate, not purified)
T1 sequence (Q96AD5 1-504): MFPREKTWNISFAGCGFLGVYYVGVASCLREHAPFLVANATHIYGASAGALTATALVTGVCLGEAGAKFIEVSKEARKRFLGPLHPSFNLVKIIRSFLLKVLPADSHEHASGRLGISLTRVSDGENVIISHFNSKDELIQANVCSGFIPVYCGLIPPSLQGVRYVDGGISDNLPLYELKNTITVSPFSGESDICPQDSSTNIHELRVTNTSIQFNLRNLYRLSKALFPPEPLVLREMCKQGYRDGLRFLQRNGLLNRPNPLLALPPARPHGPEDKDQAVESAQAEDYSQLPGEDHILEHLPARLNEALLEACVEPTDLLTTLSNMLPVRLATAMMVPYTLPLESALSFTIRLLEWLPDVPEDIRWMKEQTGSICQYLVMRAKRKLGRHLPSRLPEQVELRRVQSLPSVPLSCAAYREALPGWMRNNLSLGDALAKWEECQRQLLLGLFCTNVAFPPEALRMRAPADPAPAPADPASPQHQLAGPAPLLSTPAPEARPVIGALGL
Method: (§1) Triglyceride (TG) hydrolase activity was measured as previously described (Schweiger M et al., Methods in Enzymology, 2014, 538:171-93). In brief, TG hydrolase activity was determined by adding recombinant purified CGI-58 to Expi cell lysates expressing human ATGL. For determination of cross-species reactivity Expi lysates expressing ATGL from different model organisms (e.g. mouse, rat, rhesus monkey, goat, etc.) were used. Samples were incubated with DMSO (carrier) or increasing concentrations of ATGL inhibitors dissolved in DMSO. TG substrate was prepared by emulsifying 330 μM radiolabelled triolein (40,000 c.p.m./nmol) and 45 μM phosphatidylcholine/phosphatidylinositol (3:1) in 100 mM potassium phosphate buffer (pH 7.0) by sonication and adjusting to 5% essentially FA-free BSA. TG substrate was added to the reaction mixture and incubated for 1 h at 37° C. in the water bath. The reaction was terminated by adding methanol/chloroform/heptane (10:9:7) and 0.1 M potassium carbonate with 0.1 M boric acid (pH 10.5). After centrifugation at 800 g for 15 min the radioactivity in the upper phase was determined by liquid scintillation counting and the rate of FA hydrolysis was calculated. IC50 values were determined as inhibitor concentration capable of inhibiting TG hydrolase activity by 50% as compared to DMSO control. Samples were measured as duplicates. The determination of IC50 values for human ATGL is illustrated in FIG. 1.

murine ATGL = target: T2, murine ATGL (Mus musculus, UniProt Q8BJ56); experiment: TG hydrolase activity, Expi lysates expressing mouse ATGL + CGI-58, radiolabelled triolein; assay type: biochemical; conditions: 50 μM; Example 238; read-out: % Inhibition of murine ATGL at 50 μM
T2 construct: made in house; host or cells: Expi cells (lysate)
T2 sequence (Q8BJ56 1-486): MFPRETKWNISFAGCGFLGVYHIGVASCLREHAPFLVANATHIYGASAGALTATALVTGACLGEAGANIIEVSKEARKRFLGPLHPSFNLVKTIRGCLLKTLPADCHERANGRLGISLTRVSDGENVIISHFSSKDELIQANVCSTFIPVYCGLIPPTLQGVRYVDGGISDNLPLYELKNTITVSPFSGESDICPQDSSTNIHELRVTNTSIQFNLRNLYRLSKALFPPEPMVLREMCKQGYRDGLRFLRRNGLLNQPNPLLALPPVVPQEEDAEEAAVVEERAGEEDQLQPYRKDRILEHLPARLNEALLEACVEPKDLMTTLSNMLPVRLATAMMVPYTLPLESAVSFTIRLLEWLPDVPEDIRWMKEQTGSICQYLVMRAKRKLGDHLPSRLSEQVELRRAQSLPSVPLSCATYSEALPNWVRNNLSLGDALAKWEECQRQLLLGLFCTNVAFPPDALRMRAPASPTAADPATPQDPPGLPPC
Method: as §1
Lysates from Expi cells overexpressing ATGL from mouse (Mus musculus) were incubated with recombinant purified ATGL co-activator CGI-58 and ATGL inhibitors at 50 μM. Subsequently, substrate containing radiolabeled triolein was added and liberated FA were extracted and quantified by liquid scintillation. Inhibitors were dissolved in DMSO which was used as control. Samples were measured in triplicates.

[1] = Example 237, read-out: Inhibition of human ATGL − IC50
[2] = Example 238, read-out: Inhibition of human ATGL IC50

| melting point | SMILES | also measured |
| --- | --- | --- |
| 101 to 106 °C | CCOc1ccc(-c2cccc(C(=O)OCc3ccncc3)n2)cc1 [Example 194, Pyridin-4-ylmethyl 6-(4-ethoxyphenyl)picolinate] | – |
| 124 to 127 °C | CCOc1ccc(-c2cccc(C(=O)OCc3ccccn3)n2)cc1 [Example 192, Pyridin-2-ylmethyl 6-(4-ethoxyphenyl)picolinate] | – |
| 116 to 118 °C | COc1cc(C(=O)OC2CCC2)nc(-c2ccc(OC(C)C)cc2)c1 [Example 203, Cyclobutyl 6-(4-isopropoxyphenyl)-4-methoxypicolinate] | IC50 (human ATGL; [2]): 10 µM |
| 51 °C | CCc1ccc(-c2cc(OC)cc(C(=O)OC(C)C)n2)cc1 [Example 205, Isopropyl 6-(4-ethylphenyl)-4-methoxypicolinate] | IC50 (human ATGL; [2]): 3 µM |
| 109 to 111 °C | CCOc1ccc(-c2cccc(C#N)n2)cc1 [NG-437] | – |
| 75 to 80 °C | CCOc1ccc(-c2cccc(C(=O)OCc3cncs3)n2)cc1 [Example 199, Thiazol-5-ylmethyl 6-(4-ethoxyphenyl)picolinate] | – |
| 114 to 116 °C | CCOc1ccc(-c2ccc(OC)c(C(=O)OC)n2)cc1 [NG-462] | – |
| 120 to 123 °C | CCOc1ccc(-c2ccc(OC(C)=O)c(C(=O)OC)n2)cc1 [NG-477] | – |
| 68 °C | CCC(C)OC(=O)c1cc(OC)cc(-c2ccc(OC(C)C)cc2)n1 (stereo not shown) [Example 202, sec-Butyl 6-(4-Isopropoxyphenyl)-4-methoxypicolinate] | IC50 (human ATGL; [2]): 3 µM |
| 100 to 101 °C | CCOc1ccc(-c2cccc(C(F)(F)F)n2)cc1 [NG-622] | – |
| 80 to 86 °C | CCOc1ccc(-c2cccc(C(C)=O)n2)cc1 [NG-631] | – |
| 96 to 97 °C | CC(C)OC(=O)c1cccc(-c2ccc(C(F)(F)F)cc2F)n1 [NG-587] | – |
| 74 to 76 °C | CC(C)OC(=O)c1cccc(-c2ccc(Cl)c(Cl)c2)n1 [NG-481] | – |
| 82 to 84 °C | CCOc1ccc(-c2cccc(C(=O)OCCc3ccco3)n2)cc1 [Example 191, 2-(Furan-2-yl)ethyl 6-(4-ethoxyphenyl)picolinate] | – |
| 107 to 110 °C | CCOc1ccc(-c2cccc(C(=O)OCc3cccnc3)n2)cc1 [Example 193, Pyridin-3-ylmethyl 6-(4-ethoxyphenyl)picolinate] | – |
| 106 to 108 °C | CCOC(=O)c1ccc(-c2ccc(OCC)cc2)nc1 [NG-408] | – |
| 114 to 116 °C | CCOc1ccc(-c2ccc(O)c(C(=O)OC)n2)cc1 [NG-461] | – |
| 90 to 91 °C | CCOC(=O)Cc1cccc(-c2ccc(OCC)cc2)n1 [NG-640] | – |
| 73 to 76 °C | CCOc1ccc(-c2cccc(C(=O)OCCc3ccsc3)n2)cc1 [Example 196, 2-(Thiophen-3-yl)ethyl 6-(4-ethoxyphenyl)picolinate] | – |
| 73 to 78 °C | CCOc1ccc(-c2cccc(C(=O)OCCc3cccs3)n2)cc1 [Example 195, 2-(Thiophen-2-yl)ethyl 6-(4-ethoxyphenyl)picolinate] | – |

The next lines start with the molecule.

| SMILES | melting point | also measured |
| --- | --- | --- |
| CC(C)OC(=O)c1cccc(-c2ccc(C(C)(C)C)cc2)n1 [Example 60] | 104 to 106 °C | – |
| C#C[C@H](C)OC(=O)c1cccc(-c2ccc(CCC)cc2)n1 [Example 72] | 112 to 113 °C | – |
| CC(C)OC(=O)c1cccc(-c2ccc(O)cc2)n1 [Example 10] | 154 to 157 °C | – |
| CCOc1ccc(-c2cccc(C(=O)OCc3ccccc3)n2)cc1 [Example 22] | 80 to 81 °C | – |
| CCOC(=O)c1csc(-c2ccc(C(C)(C)C)cc2)n1 [Example 186, Ethyl 2-(4-(tert-butyl)phenyl)thiazole-4-carboxylate] | 50 to 52 °C | – |
| CC(C)OC(=O)c1cccc(-c2ccc(C#Cc3ccccc3)cc2)n1 [Example 63] | 136 to 143 °C | IC50 (human ATGL; [1]): 6 µM |
| CCOC(=O)c1cccc(-c2ccc(-c3ccccn3)cc2)n1 [Example 48] | 130 to 132 °C | IC50 (human ATGL; [1]): 25 µM |
| CCOc1ccc(-c2cccc(C(=O)OCCCOC)n2)cc1 [Example 3] | 36 to 38 °C | – |
| CCOC(=O)c1cccc(-c2ccc(-c3cccnc3)cc2)n1 [Example 49] | 84 to 104 °C | IC50 (human ATGL; [1]): 20 µM |
| CCOc1ccc(-c2cc(C)cc(C(=O)OC(C)C)n2)cc1 [Example 20] | 85 to 88 °C | IC50 (human ATGL; values of text and figure legend, read-out: IC50 on human ATGL (hATGL)): 4 µM |
| CC(C)OC(=O)c1cccc(C#Cc2ccccc2)n1 [Example 79] | 85 to 86 °C | – |
| CCOC(=O)c1cccc(-c2ccc(-c3ccncc3)cc2)n1 [Example 50] | 127 to 131 °C | – |
| CCCc1ccc(-c2cccc(C(=O)OCC)n2)cc1 [Example 66] | 68 to 69 °C | IC50 (human ATGL; [1]): 10 µM |
| CC(C)COc1ccc(-c2cccc(C(=O)OC(C)C)n2)cc1 [Example 96] | 103 to 107 °C | IC50 (human ATGL; [1]): 10 µM |
| CCOc1ccc(-c2cccc(C(=O)OCC(C)(C)C)n2)cc1 [Example 4] | 89 to 92 °C | – |
| CSc1ccc(-c2cccc(C(=O)OC(C)C)n2)cc1 [Example 90] | 60 to 61 °C | IC50 (human ATGL; [1]): 3 µM |

| SMILES | melting point | also measured |
| --- | --- | --- |
| CCOC(=O)c1cccc(-c2ccc(OCc3ccccc3)cc2)n1 [Example 9] | 143 to 145 °C | – |
| CC(C)OC(=O)c1cccc(-c2ccc(N(C)C)cc2)n1 [Example 17] | 134 to 140 °C | – |
| CCOC(=O)c1csc(-c2ccc(C)cc2)n1 [Example 184, Ethyl 2-(p-tolyl)thiazole-4-carboxylate] | 39 to 41 °C | – |
| CCOc1ccc(-c2cccc(C(=O)OCCCO)n2)cc1 [Example 5] | 61 to 63 °C | – |
| C#C[C@@H](C)OC(=O)c1cccc(-c2ccc(CCC)cc2)n1 [Example 71] | 112 to 113 °C | IC50 (human ATGL; [1]): 2 µM |
| C=CCOC(=O)c1cccc(-c2ccc(C(F)(F)F)cc2)n1 [Example 82] | 79 to 80 °C | – |
| COc1cc(C(=O)OC(C)C)nc(-c2ccc(-c3cccnc3)cc2)c1 [Example 65] | 118 to 121 °C | IC50 (human ATGL; [1]): 6 µM |
| CCOC(=O)c1cccc(-c2ccc(C(F)(F)F)cc2)n1 [Example 81] | 110 to 112 °C | – |
| CCCCCCOC(=O)c1cccc(-c2ccc(OCC)cc2)n1 [Example 7] | 48 to 51 °C | – |
| CCOC(=O)c1csc(-c2ccc(C(F)(F)F)cc2)n1 [Example 183, Ethyl 2-(4-(trifluoromethyl)phenyl)thiazole-4-carboxylate] | 100 °C | – |
| CCOC(=O)c1cccc(-c2ccccc2)n1 [Example 39] | 42 to 46 °C | – |
| COC(=O)c1cccc(-c2ccc(C(F)(F)F)cc2)n1 [Example 78] | 95 to 96 °C | – |
| CCOc1ccc(-c2cccc(C(=O)OCCc3ccccc3)n2)cc1 [Example 74] | 80 to 82 °C | – |
| CCOC(=O)c1csc(-c2ccc(O)cc2)n1 [Example 188, Ethyl 2-(4-hydroxyphenyl)thiazole-4-carboxylate] | 171 °C | – |
| C#CCC(C)OC(=O)c1csc(-c2ccc(OCC)cc2)n1 (stereo not shown) [Example 208, Pont-4-yn-2-yl 2-(4-ethoxyphenyl)thiazole-4-carboxylate] | – | IC50 (human ATGL; [2]): 10 µM; inhibition at 50 µM (murine ATGL): 59% |
